Laboratory results from patent publication US4424225A, “Thienobenzodiazepinones, pharmaceutical compositions thereof and method of use thereof” (Dr. Karl Thomae GmbH, priority 1982, dated 1984).

How the values were obtained:
[1] = Testing for mydriasis; details: rat, in vivo, iv; pupil observed for 10 minutes
Method: The effect of the test substances on the pupil size in rats was investigated as follows:
The substances were administered intravenously to groups of 10 animals in at least three uniformly graduated doses. The pupil size was then observed for 10 minutes to see if there were any changes (mydriasis or miosis). […] The percentage of test animals in which mydriasis occurred was determined. The ED50 values were again determined using the method of LITCHFIELD and WILCOXON (see above).

[2] = target: muscarinic receptors (cerebral cortex); test: Binding to muscarinic receptors, displacement of 3H-N-methylscopolamine, cerebral cortex; design: species or system rat (male Sprague-Dawley); details: 0.3 n molar 3H-NMS, 30° C., 45 minutes, pH 7.4, read-out: Receptor Binding Tests IC50, Cortex
Method: (§1) 3. STUDIES OF BINDING TO MUSCARINIC RECEPTORS: DETERMINATION OF THE IC50 VALUE
(§2) The organ donors were male Sprague-Dawley rats with a body weight of from about 180 to 220 gm each. After the heart, stomach, and cerebral cortex had been removed, the remainder of the operation was carried out in ice-cold Hepes-HCl buffer (pH 7.4; 100 m molar NaCl, 10 m molar MgCl2). The smooth muscle of the fundus of the stomach was separated from the mucous membrane of the stomach and subjected to preliminary homogenization. The whole heart was cut up with scissors. All the organs were then homogenized in a Potter apparatus.
(§3) For the binding test, the homogenized organs were diluted as follows:
(§4) The homogenized organ preparations were incubated at a specific concentration of the radioligand and with a series of concentrations of the non-radioactive test substances in an Eppendorf centrifuge tube at 30° C. The duration of incubation was 45 minutes. The substance 0.3 n molar ^3 H-N-methylscopolamine (^3 H-NMS) was used as the radioligand. After incubation had been brought to an end by centrifuging at 14000 g, the radioactivity in the pellet was determined. […] The proportion of non-specific binding was defined as the radioactivity which was bound in the presence of 1μ molar quinuclidinylbenzylate. […] The IC50 values of the non-labelled test substances were determined graphically. […]

[3] = target: T1, muscarinic receptors (smooth muscle of the fundus of the stomach) (Rattus norvegicus, UniProt P10980); test: Binding to muscarinic receptors, displacement of 3H-N-methylscopolamine, smooth muscle of the fundus of the stomach; design: species or system rat (male Sprague-Dawley); details: 0.3 n molar 3H-NMS, 30° C., 45 minutes, pH 7.4, read-out: Receptor Binding Tests IC50, Smooth Muscle Fundus of Stomach
T1 construct: The smooth muscle of the fundus of the stomach was separated from the mucous membrane of the stomach; from tissue; host or cells: homogenized smooth muscle of the stomach fundus of male Sprague-Dawley rats
T1 sequence (P10980 1-466): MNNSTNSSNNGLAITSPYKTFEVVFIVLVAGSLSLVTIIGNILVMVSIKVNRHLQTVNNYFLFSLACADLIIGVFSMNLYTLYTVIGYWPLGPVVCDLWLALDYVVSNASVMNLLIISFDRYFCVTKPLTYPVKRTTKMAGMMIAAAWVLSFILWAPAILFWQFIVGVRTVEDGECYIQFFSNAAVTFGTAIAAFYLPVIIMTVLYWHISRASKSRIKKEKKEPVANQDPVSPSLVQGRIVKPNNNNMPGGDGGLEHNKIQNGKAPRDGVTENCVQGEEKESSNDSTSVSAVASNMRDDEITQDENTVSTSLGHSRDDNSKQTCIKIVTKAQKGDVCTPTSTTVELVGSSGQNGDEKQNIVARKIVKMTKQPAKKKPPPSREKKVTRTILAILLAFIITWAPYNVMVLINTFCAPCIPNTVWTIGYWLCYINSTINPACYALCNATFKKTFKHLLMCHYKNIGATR
Method: as §1, §2, §3
Smooth muscle of the fundus of the stomach: 1:100
as §4, with “The substance 0.3 n molar ^3 H-N-methylscopolamine (^3 H-NMS) was used as the radioligand.” left out

[4] = test system: oxotremorine-induced lesions in the mucous membrane of the stomach (muscarinic receptors); test: Oxotremorine test: protection against oxotremorine-induced lesions of the gastric mucous membrane; assay type: in vivo, rat (female albino, Crl: COBS-CD (SD) BR); details: Rattus norvegicus, iv, 15 minutes before oxotremorine 0.62 mg/kg i.v., neostigmine 1 mg/kg oral
Method: (§5) Oxotremorine, a specific agonist for muscarinic receptors, produces lesions in the mucous membrane of the stomach in rats and increases their secretion of saliva. This test method was chosen so that any selective activity of an anti-muscarinic substance on the stomach could be identified.
Ten female albino rats (of the Crl: COBS-CD (SD) BR strain) with a body weight of from 120 to 150 gm apiece were used in each treatment group and were kept without food for 24 hours before the start of the test but given free access to drinking water. […]
(§6) Each antimuscarinic substance was administered intravenously in uniformly graduated doses 15 minutes before the oxotremorine was administered. Control groups were given corresponding quantities of the solvent and suspension agent instead of the test substance. […]
(§7) The ED50 values were determined using the method described by LITCHFIELD and WILCOXON (J. Pharmacol. Exp. Ther. 96, 99, 1949).
The effects on lesions of the mucous membrane of the stomach were evaluated as follows:
The lesions of the gastric mucous membrane were produced by intravenous injection of 0.62 mg/kg of oxotremorine 30 minutes after oral administration of 1 mg/kg of neostigmine (a cholinesterase inhibitor). […] The protective effect of the test substances was expressed as the percentage inhibition (percentage of animals without lesions). […]

[5] = Oxotremorine test: inhibition of oxotremorine-induced secretion of saliva; design: species or system rat (female albino, Crl: COBS-CD (SD) BR); details: rat, in vivo, iv, 15 minutes before oxotremorine 0.083 mg/kg i.v.; read-out: Oxotremorine Test, Inhibition of Salivation ED50
Method: as §5
Ten female albino rats (of the Crl: COBS-CD (SD) BR strain) with a body weight of from 120 to 150 gm apiece were used in each treatment group and were kept without food for 24 hours before the start of the test but given free access to drinking water.
To determine, in preliminary tests, the muscarinic effect of oxotremorine on each of the symptoms studied, a dosage/activity curve was drawn up with at least three dosages for each symptom.
When the antimuscarinic substances were tested, the dosage of oxotremorine which triggered the symptom in question in 90 to 100% of the animals in the preliminary tests was used.
Secretion of saliva: 0.083 mg/kg i.v.
as §6, §7

CN1CCC(CC(=O)N2c3ccccc3NC(=O)c3cscc32)CC1 [A, 4,9-Dihydro-4-[(1-methyl-4-piperidinyl)acetyl]-10H-thieno[3,4-b][1,5]benzodiazepin-10-one] showed an ED50 at 10 min [1] of 0.03 mg/kg, an IC50 [2] of 0.02 µM and an IC50 [3] of 0.075 µM. For the same compound, the ED50 ([4]; read-out: Oxotremorine Test, Anti-ulcerative Effect ED50) was 0.0078 mg/kg, the ED70 ([4]; read-out: Oxotremorine Test, Anti-ulcerative Effect ED70) was 0.014 mg/kg and the ED50 at 0.25 h [5] was 0.0215 mg/kg.
